Source: ChEMBL document CHEMBL5214978, “Identification of 1,4-Benzodiazepine-2,5-dione Derivatives as Potential Protein Synthesis Inhibitors with Highly Potent Anticancer Activity” (J Med Chem, 2022)

Assays:
Assay type in all cases: functional
[1] = system: LOX IMVI; assay: Anticancer activity against human LOX IMVI cells assessed as cell growth inhibition measured after 48 hrs by SRB assay
[2] = system: A549; assay: Anticancer activity against human A549 cells assessed as cell growth inhibition measured after 48 hrs by SRB assay
[3] = system: HCT-116; assay: Anticancer activity against human HCT-116 cells assessed as cell growth inhibition measured after 48 hrs by SRB assay
[4] = system: 786-0; assay: Anticancer activity against human 786-0 cells assessed as cell growth inhibition measured after 48 hrs by SRB assay
[5] = system: SF-295; assay: Anticancer activity against human SF-295 cells assessed as cell growth inhibition measured after 48 hrs by SRB assay
[6] = system: Panel NCI-60 (60 carcinoma cell lines); assay: Anticancer activity against human Panel NCI-60 (60 carcinoma cell lines) line assessed as cell growth inhibition measured after 48 hrs by SRB assay

`COC(=O)C[C@H]1NC(=O)c2cc(Oc3cc(C)cc(C)c3)c(NC(=O)c3cc(OC)c(OC)c(OC)c3)cc2NC1=O` showed a GI50 [1] greater than 50 µM, a GI50 [2] greater than 50 µM and a GI50 [3] greater than 50 µM. The GI50 [4] was greater than 50 µM, the GI50 [5] was greater than 50 µM and the GI50 [6] was greater than 50 µM.

`CCN(CC)C(=O)C[C@@H]1NC(=O)c2cc(Oc3cc(C)cc(C)c3)c(NC(=O)c3cc(OC)c(OC)c(OC)c3Cl)cc2NC1=O` gave a GI50 [1] of less than 0.005 µM, a GI50 [2] of 0.017 µM and a GI50 [3] of less than 0.013 µM. The GI50 [4] was 0.04 µM and the GI50 [5] was 0.023 µM.

`COc1cc(C(=O)Nc2cc3c(cc2Oc2cc(C)cc(C)c2)C(=O)N[C@@H](Cc2ncnn2C)C(=O)N3)cc(OC)c1OC` gave a GI50 [1] of 0.07 µM, a GI50 [2] of 0.47 µM and a GI50 [3] of 0.09 µM. The GI50 [4] was 36 µM, the GI50 [5] was 0.18 µM and the GI50 [6] was 0.16 µM.

Work on `COC(=O)C[C@@H]1NC(=O)c2cc(OCc3cc(C)cc(C)c3)c(NC(=O)c3cc(OC)c(OC)c(OC)c3)cc2NC1=O` yielded a GI50 [1] of 2.99 µM, a GI50 [2] of 1.81 µM and a GI50 [3] of 2.82 µM. For the same compound, the GI50 [4] was 4.78 µM, the GI50 [5] was 1.5 µM and the GI50 [6] was 3.02 µM.

`CCN(CC)C(=O)C[C@@H]1NC(=O)c2cc(Oc3cc(C)c(Br)c(C)c3)c(NC(=O)c3cc(OC)c(OC)c(OC)c3)cc2NC1=O` showed a GI50 [1] of 0.128 µM, a GI50 [2] of 0.243 µM and a GI50 [3] of 0.172 µM. It also gave a GI50 [4] of 1 µM and a GI50 [6] of 0.234 µM.

In the case of `CCN(CC)C(=O)C[C@@H]1NC(=O)c2cc(Oc3cc(C)cc(C)c3)c(NC(=O)c3cc(OC)c(OC)c(OC)c3)cc2NC1=O`, the GI50 [1] is reported as 0.02 µM, the GI50 [2] is reported as 0.02 µM and the GI50 [3] is reported as 0.02 µM. For the same compound, the GI50 [4] was 0.09 µM, the GI50 [5] was 0.02 µM and the GI50 [6] was 0.03 µM.

Compound `COc1cc(C(=O)Nc2cc3c(cc2Oc2cc(C)cc(C)c2)C(=O)N[C@@H](CC(=O)N(C)C)C(=O)N3)cc(OC)c1OC` has a GI50 [1] of 0.02 µM, a GI50 [2] of 0.14 µM and a GI50 [3] of 0.03 µM. The GI50 [5] was 0.11 µM and the GI50 [6] was 0.06 µM.

With `CCN(CC)C(=O)C[C@H]1C(=O)Nc2cc(NC(=O)c3cc(OC)c(OC)c(OC)c3Cl)c(Oc3cc(C)c(F)c(C)c3)cc2C(=O)N1C` the GI50 [1] was 0.009 µM, the GI50 [2] was 0.021 µM and the GI50 [3] was 0.022 µM. The GI50 [4] was 0.03 µM, the GI50 [5] was 0.019 µM and the GI50 [6] was 0.018 µM.

Compound `CCN(CC)C(=O)C[C@H]1C(=O)Nc2cc(NC(=O)c3cc(OC)c(OC)c(OC)c3Cl)c(Oc3cc(C)cc(C)c3)cc2C(=O)N1C` has a GI50 [1] of less than 0.005 µM, a GI50 [2] of 0.009 µM and a GI50 [3] of 0.013 µM. The GI50 [4] was 0.01 µM, the GI50 [5] was 0.012 µM and the GI50 [6] was 0.017 µM.

Compound `COC(=O)C[C@@H]1NC(=O)c2cc(Oc3cc(C)cc(F)c3)c(NC(=O)c3cc(OC)c(OC)c(OC)c3)cc2NC1=O` has a GI50 [1] of 0.19 µM, a GI50 [2] of 0.14 µM and a GI50 [3] of 0.16 µM. For the same compound, the GI50 [4] was 0.16 µM, the GI50 [5] was 0.15 µM and the GI50 [6] was 0.18 µM.

`CCN(CC)C(=O)C[C@@H]1NC(=O)c2cc(Oc3cc(C)c(F)c(C)c3)c(NC(=O)c3cc(OC)c(OC)c(OC)c3Cl)cc2NC1=O` showed a GI50 [1] of 0.008 µM, a GI50 [2] of 0.026 µM and a GI50 [3] of 0.017 µM. The GI50 [4] was 0.061 µM, the GI50 [5] was 0.027 µM and the GI50 [6] was 0.016 µM.

In the case of `CCN(CC)C(=O)C[C@H]1C(=O)Nc2cc(NC(=O)c3cc(OC)c(OC)c(OC)c3)c(Oc3cc(C)cc(C)c3)cc2C(=O)N1C`, the GI50 [1] is reported as 0.018 µM, the GI50 [2] is reported as 0.017 µM and the GI50 [3] is reported as 0.021 µM. It also gave a GI50 [4] of 0.041 µM, a GI50 [5] of 0.01 µM and a GI50 [6] of 0.023 µM.

`CCCCOC(=O)C[C@@H]1NC(=O)c2cc(Oc3cc(C)cc(C)c3)c(NC(=O)c3cc(OC)c(OC)c(OC)c3)cc2NC1=O` gave a GI50 [1] of 3.98 µM, a GI50 [2] of 1.86 µM and a GI50 [3] of 0.51 µM. For the same compound, the GI50 [4] was 1.91 µM and the GI50 [5] was 1.91 µM.

Compound `COC(=O)C[C@@H]1NC(=O)c2cc(Oc3ccc4c(c3)CCC4)c(NC(=O)c3cc(OC)c(OC)c(OC)c3)cc2NC1=O` has a GI50 [1] of 1.93 µM, a GI50 [2] of 1.4 µM and a GI50 [3] of 1.71 µM. For the same compound, the GI50 [4] was 2.13 µM, the GI50 [5] was 0.99 µM and the GI50 [6] was 1.86 µM.

With `COc1cc(C(=O)Nc2cc3c(cc2Oc2cc(C)cc(C)c2)C(=O)N[C@@H](CC(=O)O)C(=O)N3)cc(OC)c1OC` the GI50 [1] was greater than 50 µM, the GI50 [2] was greater than 50 µM and the GI50 [3] was greater than 50 µM. It also gave a GI50 [4] greater than 50 µM, a GI50 [5] greater than 50 µM and a GI50 [6] greater than 50 µM.

`COC(=O)C[C@@H]1NC(=O)c2cc(Oc3cc(C)ccc3C)c(NC(=O)c3cc(OC)c(OC)c(OC)c3)cc2NC1=O` was tested, and the GI50 [1] was 1.36 µM, the GI50 [2] was 1.17 µM and the GI50 [3] was 1.34 µM. For the same compound, the GI50 [4] was 1.28 µM, the GI50 [5] was 0.96 µM and the GI50 [6] was 1.35 µM.

With `CCN(CC)C(=O)C[C@@H]1NC(=O)c2cc(Oc3cc(C)cc(C)c3)c(N(C)C(=O)c3cc(OC)c(OC)c(OC)c3)cc2NC1=O` the GI50 [1] was greater than 50 µM, the GI50 [2] was greater than 50 µM and the GI50 [3] was 50 µM. For the same compound, the GI50 [4] was greater than 50 µM, the GI50 [5] was greater than 50 µM and the GI50 [6] was greater than 50 µM.

Work on `COC(=O)C[C@@H]1NC(=O)c2cc(Oc3cccc(N(C)C)c3)c(NC(=O)c3cc(OC)c(OC)c(OC)c3)cc2NC1=O` yielded a GI50 [1] of 5.26 µM, a GI50 [2] of 3.41 µM and a GI50 [3] of 5.25 µM. It also gave a GI50 [4] of 14.9 µM, a GI50 [5] of 3.09 µM and a GI50 [6] of 4.68 µM.

Work on `CCN(CC)C(=O)C[C@@H]1NC(=O)c2cc(Oc3cc(C)cc(C)c3)c(NC(=O)c3c(F)c(OC)c(OC)c(OC)c3Cl)cc2NC1=O` yielded a GI50 [1] of 0.007 µM, a GI50 [2] of 0.015 µM and a GI50 [3] of 0.017 µM. For the same compound, the GI50 [4] was 0.061 µM, the GI50 [5] was 0.04 µM and the GI50 [6] was 0.023 µM.

For `COC(=O)C[C@@H]1NC(=O)c2cc(Oc3cc(C)cc(C)c3)c(NC(=O)c3ccco3)cc2NC1=O`, the GI50 [1] was greater than 50 µM, the GI50 [2] was greater than 50 µM and the GI50 [3] was greater than 50 µM. The GI50 [4] was greater than 50 µM, the GI50 [5] was greater than 50 µM and the GI50 [6] was greater than 50 µM.

Work on `COC(=O)C[C@@H]1NC(=O)c2cc(Oc3cc(C)cc(C)c3)c(NC(=O)c3ccc(F)cc3)cc2NC1=O` yielded a GI50 [1] greater than 50 µM, a GI50 [2] greater than 50 µM and a GI50 [3] greater than 50 µM. For the same compound, the GI50 [4] was greater than 50 µM, the GI50 [5] was greater than 50 µM and the GI50 [6] was greater than 50 µM.

With `COC(=O)C[C@@H]1NC(=O)c2cc(OCCN3CCOCC3)c(NC(=O)c3cc(OC)c(OC)c(OC)c3)cc2NC1=O` the GI50 [1] was greater than 50 µM, the GI50 [2] was greater than 50 µM and the GI50 [3] was greater than 50 µM. For the same compound, the GI50 [4] was greater than 50 µM, the GI50 [5] was greater than 50 µM and the GI50 [6] was greater than 50 µM.

For `COC(=O)C[C@@H]1NC(=O)c2cc(OCCc3cc(C)cc(C)c3)c(NC(=O)c3cc(OC)c(OC)c(OC)c3)cc2NC1=O`, the GI50 [1] was 5.15 µM, the GI50 [2] was 2.09 µM and the GI50 [3] was 4.01 µM. For the same compound, the GI50 [4] was 7.45 µM, the GI50 [5] was 1.61 µM and the GI50 [6] was 3.02 µM.

`COC(=O)C[C@@H]1NC(=O)c2cc(Oc3cc(Cl)cc(Cl)c3)c(NC(=O)c3cc(OC)c(OC)c(OC)c3)cc2NC1=O` gave a GI50 [1] greater than 50 µM, a GI50 [2] greater than 50 µM and a GI50 [3] greater than 50 µM. It also gave a GI50 [4] greater than 50 µM, a GI50 [5] greater than 50 µM and a GI50 [6] greater than 50 µM.

`COC(=O)C[C@@H]1NC(=O)c2cc(Oc3ccc(C(F)(F)F)cc3)c(NC(=O)c3cc(OC)c(OC)c(OC)c3)cc2NC1=O` was tested, and the GI50 [1] was greater than 50 µM, the GI50 [2] was greater than 50 µM and the GI50 [3] was greater than 50 µM. For the same compound, the GI50 [4] was greater than 50 µM, the GI50 [5] was greater than 50 µM and the GI50 [6] was greater than 50 µM.

Compound `CCc1noc(C[C@@H]2NC(=O)c3cc(Oc4cc(C)cc(C)c4)c(NC(=O)c4cc(OC)c(OC)c(OC)c4)cc3NC2=O)n1` has a GI50 [1] of 0.13 µM, a GI50 [2] of 0.14 µM and a GI50 [3] of 0.26 µM. The GI50 [4] was 0.72 µM, the GI50 [5] was 0.11 µM and the GI50 [6] was 0.27 µM.

For `CCCCN(CCCC)C(=O)C[C@@H]1NC(=O)c2cc(Oc3cc(C)cc(C)c3)c(NC(=O)c3cc(OC)c(OC)c(OC)c3)cc2NC1=O`, the GI50 [1] was 0.34 µM, the GI50 [2] was 0.36 µM and the GI50 [3] was 0.46 µM. It also gave a GI50 [4] of 0.36 µM and a GI50 [5] of 0.32 µM.
